Experimental findings from ChEMBL document CHEMBL1145674, “Isolation and identification of "diazepam-like" compounds from bovine urine” (J Nat Prod, 1983) are described below.

Common to all, as to format: cell membranes
Test [1] is described as follows: Displacement of [3H]diazepam from benzodiazepine receptor in rat cerebral cortex membrane.
The species entered for test [2] is Rattus norvegicus. The experiment in a line: Increase in [3H]diazepam binding to benzodiazepine receptor in rat cerebral cortex membrane at 0.5 mM relative to control.
The species entered for test [3] is Rattus norvegicus. The experiment in a line: Increase in [3H]diazepam binding to benzodiazepine receptor in rat cerebral cortex membrane at 1 mM relative to control.

As to `O=c1[nH]cnc2c1ncn2[C@@H]1O[C@H](CO)[C@@H](O)[C@H]1O` [INOSINE], the IC50 in test [1] is 900 µM.
Turning to `Oc1ccc([C@H]2COc3cc(O)ccc3C2)cc1` [AUS-131], in test [1], the IC50 came to 80 µM.
Take `Clc1ccc2[nH]c3ccccc3c2c1`: the Activity amounted to 143% in test [2] and 172% in test [3].
Consider `NC(=O)c1cccnc1` [NIACINAMIDE], for which, in test [1], the IC50 is 3900 µM.
Same read-out and setting: in the case of `COc1ccc2c(=O)c(-c3ccc(O)cc3)coc2c1` [ISOFORMONENTIN] it was 1100 µM; in that of `O=c1[nH]cnc2nc[nH]c12` [HYPOXANTHINE], 700 µM.
On the same count and under the same terms, in the case of `O=c1c(-c2cccc(O)c2)coc2cc(O)ccc12` it was 140 µM; in that of `Oc1cccc(C2COc3cc(O)ccc3C2)c1` (racemic), 45 µM; in that of `COc1ccc2c(c1)OCC(c1ccc(O)cc1)C2` (racemic), 1300 µM.
On the same count and under the same terms, in the case of `CN1C(=O)CN=C(c2ccccc2)c2cc(Cl)ccc21` [DIAZEPAM] it was 0.005 µM; in that of `COc1ccc(C2COc3cc(O)ccc3C2)cc1` (racemic), 1500 µM.
In test [1], `COc1ccc(-c2coc3cc(O)ccc3c2=O)cc1` [FORMONONETIN] gave an IC50 of 700 µM.
